{"source": "patent US7642287B2", "about": "“Statin pharmaceutical compositions and related methods of treatment” (Transform Pharmaceuticals, Inc., priority 2004, dated 2010)", "key": {"[1]": {"assay": "Gravimetric solubility in deionized water at 23 degrees C", "assay_type": "physicochemical", "settings": "listed as calcium salt of fluvastatin", "protocol": "Solubility measurements of the sodium salt and of the calcium salt of fluvastatin were acquired in water at 23 degrees C. Solubility was measured gravimetrically in deionized water."}, "[2]": {"assay": "26 week stability of pravastatin salts suspended in E463808 omega-3 oil (HPLC)", "assay_type": "physicochemical", "protocol": "Several salts of pravastatin were suspended in E463808 omega-3 oil and placed in either capped glass vials or sealed gelatin capsules. […] were used at 25 degrees C. while glass vials were used at 25, 40, and 60 degrees C. The suspensions of salt in oil were measured periodically for 26 weeks. HPLC was used to measure degradation of the pravastatin salts."}, "[3]": {"assay": "Pharmacokinetic two-way cross-over study in fasted beagle dogs (plasma pravastatin, LC/MS)", "assay_type": "in vivo", "protocol": "A two-way cross-over experiment was completed with six fasted beagle dogs to compare the pharmacokinetic parameters of pravastatin calcium salt with pravastatin sodium salt. The pravastatin sodium salt was acquired from PRAVACHOL® tablets. The pravastatin calcium salt was acquired via the method described in Example 1. The pravastatin calcium salt dosage form administered to the dogs consisted of 11.0 mg pravastatin calcium salt (equivalent to 10 mg pravastatin acid) and 744 mg Ropufa 75 ethyl esters of omega-3 fatty acids in a soft gelatin capsule shell. […] The mean dose of pravastatin free acid administered as PRAVACHOL® was 0.85 mg/kg and the mean dose of pravastatin free acid administered as pravastatin calcium salt was 0.95 mg/kg. Following administration, plasma samples were collected pre-dose and then at 0.25, 0.5, 1, 1.5, 2, 3, 4, 6, 8, 12, and 24 hours post-dose. Plasma samples were analyzed for pravastatin concentration using an LC/MS method."}, "[4]": {"assay": "Aqueous solubility via UV absorption", "settings": "water, via UV detection, 20-25 degrees C.", "description": "The term “aqueous solubility” refers to the solubility as measured in deionized water at about 25 degrees C., unless otherwise specified.\nA calibration curve was constructed by preparing known concentrations of API in absolute ethanol in volumetric flasks. At each concentration, 200 microliters of the solution was transferred into a 96-well clear bottom UV plate. The sample absorbance was measured at 280 nm (unless otherwise noted) in a UV spectrophotometer.\nTo measure the API concentration in the sample, a small aliquot was taken and diluted (typically 2000-fold) with absolute ethanol in a volumetric flask to a final approximate concentration of less than 100 micrograms/mL. The absorbance at 280 nm (unless otherwise noted) is measured and the solubility is calculated based on the calibration curve."}, "[5]": {"assay": "Dynamic Vapor Sorption (DVS) moisture sorption isotherm", "assay_type": "physicochemical", "text": "Dynamic Vapor Sorption (DVS) data were also acquired on both the pravastatin calcium salt and the pravastatin sodium salt. […] This is consistent with an amorphous compound. Hysteresis is observed in the desorption cycle. […] Significant hysteresis is observed in the desorption cycle."}, "[6]": {"assay_type": "physicochemical", "protocol": "Several salts of pravastatin were suspended in 87:13 E681010:ethanol mixtures and placed in capped glass vials. Each suspension of pravastatin calcium, pravastatin magnesium, pravastatin sodium, or pravastatin zinc in 87:13 E681010:ethanol was measured periodically for 12 weeks. HPLC was used to measure degradation of the pravastatin salts."}, "[7]": {"settings": "suspension in E463808, capped glass vials, 8 weeks"}, "[8]": {"settings": "beagle, dog, plasma, po, 0.95 mg/kg, Mean of six fasted beagle dogs, mean dose as free acid 0.95 mg/kg (calcium salt softgel), 0.85 mg/kg (PRAVACHOL)"}, "[9]": {"settings": "individual dogs, oral, fasted, mean dose as free acid 0.95 mg/kg (calcium salt softgel), 0.85 mg/kg (PRAVACHOL), calcium salt"}}, "note": "Values joined by “and” are separate entries in the source; they are usually repeats but may differ in a detail not shown here. Identical values can stand only once. Counter-ions that a name gives are not always drawn. Like-named read-outs stand apart in the source and are kept apart here.", "data": [{"compound": "CC(C)n1c(/C=C/C(O)CC(O)CC(=O)O)c(-c2ccc(F)cc2)c2ccccc21", "note": "(centres unmarked) [fluvastatin calcium salt]", "values": [{"measurement": "aqueous solubility", "setting": "[1]", "value": "less than or equal to 0.275 mg/mL"}]}, {"compound": "CC[C@H](C)C(=O)O[C@H]1C[C@H](O)C=C2C=C[C@H](C)[C@H](CC[C@@H](O)C[C@@H](O)CC(=O)O)[C@H]21", "note": "[pravastatin calcium salt]", "values": [{"measurement": "stability in suspension of omega-3 oil relative to other pravastatin salts (sodium, potassium)", "setting": "[2]; summary statement referring to the Exemplification", "value": "higher stability"}, {"measurement": "degradation at 60 degrees C. vs potassium salt at 40 degrees C.", "setting": "[2]; [7]", "value": "significantly less degradation"}, {"measurement": "degradation at 60 degrees C. vs sodium salt at 40 degrees C.", "setting": "[2]; [7]", "value": "similar"}, {"measurement": "degradation vs sodium or potassium salt at a given temperature", "setting": "[2]; suspension in E463808, capped glass vials, 40 and 60 degrees C.", "value": "degrade substantially less"}, {"measurement": "degradation compared with all salts in gelcap or vial", "setting": "[2]; suspension in E463808, vial, 25 degrees C., 26 weeks", "value": "degrade the least"}, {"measurement": "bioavailability", "setting": "[3]; beagle, dog, plasma, po, 0.95 mg/kg, Mean of six dogs, relative to PRAVACHOL AUCinf, dose-normalized", "value": 121, "unit": "%"}, {"measurement": "AUC(0-inf)", "setting": "[3]; [8]", "value": 441, "unit": "ng·h/mL"}, {"measurement": "AUC(0-t)", "setting": "[3]; [8]", "value": 432, "unit": "ng·h/mL"}, {"measurement": "half-life", "setting": "[3]; [8]", "value": 2.35, "unit": "h"}, {"measurement": "Cmax", "setting": "[3]; beagle, dog, plasma, po, 0.95 mg/kg, Mean of six fasted beagle dogs, oral, mean dose as free acid 0.95 mg/kg (calcium salt softgel), 0.85 mg/kg (PRAVACHOL), read-out: Cmax", "value": 141, "unit": "ng/mL"}, {"measurement": "Tmax", "setting": "[3]; beagle, dog, plasma, po, 0.95 mg/kg, Mean of six fasted beagle dogs, oral, mean dose as free acid 0.95 mg/kg (calcium salt softgel), 0.85 mg/kg (PRAVACHOL), read-out: Tmax", "value": 0.71, "unit": "h"}, {"measurement": "AUC(0-t)", "setting": "[3]; beagle, dog, plasma, po, 0.95 mg/kg, individual dogs, fasted, mean dose as free acid 0.95 mg/kg (calcium salt in Ropufa 75 omega-3 ethyl esters softgel), 0.85 mg/kg (PRAVACHOL)", "value": 488, "unit": "ng·h/mL"}, {"measurement": "AUC(0-inf)", "setting": "[3]; beagle, dog, plasma, po, 0.95 mg/kg, individual dogs, fasted, mean dose as free acid 0.95 mg/kg (calcium salt softgel), 0.85 mg/kg (PRAVACHOL)", "value": 494, "unit": "ng·h/mL"}, {"measurement": "AUC values compared with the PRAVACHOL tablet", "setting": "[3]; fasted beagle dogs, oral", "value": "slightly higher"}, {"measurement": "Cmax values compared with the PRAVACHOL tablet", "setting": "[3]; fasted beagle dogs, oral", "value": "slightly higher"}, {"measurement": "Tmax values compared between the formulations", "setting": "[3]; fasted beagle dogs, oral", "value": "comparable"}, {"measurement": "AUC0–t", "setting": "[3]; individual dogs, oral, fasted, mean dose as free acid 0.95 mg/kg (calcium salt in Ropufa 75 omega-3 ethyl esters softgel), 0.85 mg/kg (PRAVACHOL), calcium salt", "value": "438.55 ng·h/mL and 505.30 ng·h/mL and 380.68 ng·h/mL and 512.94 ng·h/mL and 264.11 ng·h/mL"}, {"measurement": "AUCinf", "setting": "[3]; [9]", "value": "453.69 ng·h/mL and 515.14 ng·h/mL and 396.20 ng·h/mL and 518.11 ng·h/mL and 268.01 ng·h/mL"}, {"measurement": "Cmax", "setting": "[3]; [9]", "value": "182 ng/mL and 131 ng/mL and 166 ng/mL and 99.0 ng/mL and 87.2 ng/mL"}, {"measurement": "Tmax", "setting": "[3]; [9]", "value": "1 h and 0.5 h and 0.25 h"}, {"measurement": "t1/2", "setting": "[3]; [9]", "value": "1.67 h and 2.5 h and 1.89 h and 2.76 h and 3.44 h and 1.85 h"}, {"measurement": "aqueous solubility", "setting": "[4]; listed as calcium salt of pravastatin, calcium salt", "value": "17 to 20", "unit": "mg/mL"}]}, {"compound": "CCC(C)C(=O)OC1CC(O)C=C2C=CC(C)C(CCC(O)CC(O)CC(=O)[O-])C21.CCC(C)C(=O)OC1CC(O)C=C2C=CC(C)C(CCC(O)CC(O)CC(=O)[O-])C21.[Mg+2]", "note": "(centres unmarked) [pravastatin magnesium salt (habit A), pravastatin magnesium salt]", "values": [{"measurement": "aqueous solubility", "setting": "[4]", "value": 14.22, "unit": "mg/mL"}]}, {"compound": "CCC(C)C(=O)OC1CC(O)C=C2C=CC(C)C(CCC(O)CC(O)CC(=O)[O-])C21.CCC(C)C(=O)OC1CC(O)C=C2C=CC(C)C(CCC(O)CC(O)CC(=O)[O-])C21.[Mg+2]", "note": "(centres unmarked) [pravastatin magnesium salt (habit B), pravastatin magnesium salt]", "values": [{"measurement": "aqueous solubility", "setting": "[4]", "value": 16.12, "unit": "mg/mL"}]}, {"compound": "CC[C@H](C)C(=O)O[C@H]1C[C@H](O)C=C2C=C[C@H](C)[C@H](CC[C@@H](O)C[C@@H](O)CC(=O)O)[C@H]21", "note": "[pravastatin sodium salt]", "values": [{"measurement": "hygroscopicity compared with the calcium salt", "setting": "[5]; DVS", "value": "greater hygroscopicity"}, {"measurement": "relative humidity above which adsorbed water increased significantly", "setting": "[5]; DVS sorp-desorp cycle", "value": "about 54 percent RH"}, {"measurement": "aqueous solubility", "setting": "[4]; listed as sodium salt of pravastatin, sodium salt", "value": "greater than 300 mg/mL"}]}, {"compound": "CC[C@H](C)C(=O)O[C@H]1C[C@H](O)C=C2C=C[C@H](C)[C@H](CC[C@@H](O)C[C@@H](O)CC(=O)O)[C@H]21.[Zn]", "note": "[pravastatin zinc salt]", "values": [{"measurement": "moisture sorption behaviour (DVS isotherm)", "setting": "[5]; 25 degrees C.", "value": "gradual increase in moisture sorption"}, {"measurement": "degradation to the lactone (percent lactone)", "setting": "[6]", "value": "about 3%"}, {"measurement": "stability in suspension of omega-3 oil and an alcohol relative to other pravastatin salts", "setting": "[6]", "value": "higher stability"}]}, {"compound": "pravastatin magnesium salt", "values": [{"measurement": "aqueous solubility", "setting": "[4]", "value": 17.24, "unit": "mg/mL"}]}]}
